Source: US6495591B1, “Fungal efflux pump inhibitors” (Essential Therapeutics, Inc., priority 1997, dated 2002)
≈ marks a conversion by molar mass, not a printed value. Read-outs that look alike come from different tables or passages of the source.

What was measured:
[1] = biological target: pCDRI (ABC) efflux pump in S. cerevisiae YEM-1 (Candida albicans, UniProt P43071); experiment: cell-based; assay type: cell-based, C. albicans
[2] = biological target: pCDR2 (ABC) efflux pump in S. cerevisiae YEM-37 (Candida albicans, UniProt P78595); experiment: cell-based; assay type: cell-based, C. albicans
[3] = system: YEM 15 C. albicans, CDR1CDR2 up; experiment: microbe, parasite or virus in culture; assay type: cell-based; conditions: YEM 15, 24 hrs, 80% inhibition; for MIC of compound in the presence of fluconazole (+): 1/8 × MIC of fluconazole
[4] = biological target: pCgCDR (ABC) efflux pump in S. cerevisiae YEM-39 (Candida glabrata, UniProt Q6FK23); experiment: cell-based; assay type: cell-based, C. glabrata
[5] = system: YEM 13 C. albicans BEN up; experiment: microbe, parasite or virus in culture; assay type: cell-based; conditions: YEM 13, 24 hrs, 80% inhibition; for MIC of compound in the presence of fluconazole (+): 1/8 × MIC of fluconazole
[6] = system: YEM 27 C. albicans ΔCDR1ΔCDR2 ΔBENΔFLU1; experiment: microbe, parasite or virus in culture; assay type: cell-based; conditions: YEM 27, 24 hrs, 80% inhibition; for MIC of compound in the presence of fluconazole (+): 1/8 × MIC of fluconazole
[7] = system: YEM 51 C. glabrata wt; experiment: FEPI MIC with/without 1/8 fluconazole MIC at 24 hrs (Table 11); assay type: cell-based
[8] = system: YEM 53 C. krusei; experiment: as above; assay type: cell-based
[9] = system: pCgBEN (MF) efflux pump in S. cerevisiae YEM-40; assay type: cell-based, C. glabrata; conditions: YEM-40 pCgBEN; fluconazole fixed at FLUhalf 2.8
[10] = system: YEM 17 C. glabrata, CgCDR up; assay type: cell-based; conditions: 24 hrs, 80% inhibition; for MIC of compound in the presence of fluconazole (+): 1/8 × MIC of fluconazole
[11] = system: YEM 24 C. albicans ΔCDR1, ΔCDR2; experiment: microbe, parasite or virus in culture; assay type: cell-based; conditions: YEM 24, 24 hrs, 80% inhibition; for MIC of compound in the presence of fluconazole (+): 1/8 × MIC of fluconazole
[12] = system: YEM 30 C. albicans wt; experiment: FEPI MIC with/without 1/8 fluconazole MIC at 24 hrs (Table 11); assay type: cell-based
[13] = biological target: pBEN (MF) efflux pump in S. cerevisiae YEM-2 (Candida albicans, UniProt P28873); experiment: cell-based; assay type: cell-based, C. albicans
[14] = system: Aspergillus fumigatus; experiment: FEPI MICs in combination with 1/4 the azole's MIC (Table 12); assay type: cell-based; parameters: FEPI MIC (alone): unit not given here; conditions: for FEPI MIC with itraconazole, 60% Inh / FEPI MIC with itraconazole, 80% Inh: itraconazole 0.063 μg/ml (1/4 MIC); for FEPI MIC with ketoconazole, 60% Inh / FEPI MIC with ketoconazole, 80% Inh: ketoconazole 4 μg/ml (1/4 MIC); for FEPI MIC (alone): no azole, 35° C., CM Broth
Description: The combinations were tested against a series of Candida strain with known expression of efflux pumps or with complete deletion of all known pumps and Aspergillus fumigatus. Results are reported as minimum inhibitory concentration (MIC) of […] in the presence or absence of […]. A total of 27 distinct milbemycins were studied.

[15] = system: C. glabrata YEM-17 (CgCDR overexpressor); experiment: microbe, parasite or virus in culture; assay type: cell-based; conditions: Nakaseomyces glabratus
[16] = system: C. krusei YEM-71; experiment: Broth dilution checkerboard, azoles and terbinafine with milbemycin α9 (Table 8); assay type: cell-based; conditions: Pichia kudriavzevii, YEM71, YEM-71, alone
[17] = system: C. albicans YEM-15 (CDR1 & CDR2 overexpressor); experiment: microbe, parasite or virus in culture; assay type: cell-based; conditions: Candida albicans
[18] = YEM 51, 1/8 × MIC of fluconazole, 24 hrs, 80% inhibition
[19] = YEM 53, 1/8 × MIC of fluconazole, 24 hrs, 80% inhibition
[20] = YEM 30, 1/8 × MIC of fluconazole, 24 hrs, 80% inhibition
[21] = fluconazole 32 μg/ml (1/4 MIC), 60% inhibition
[22] = fluconazole 32 μg/ml (1/4 MIC), 80% inhibition

Sequence of pCDR2 (ABC) efflux pump in S. cerevisiae YEM-37 (P78595 whole entry): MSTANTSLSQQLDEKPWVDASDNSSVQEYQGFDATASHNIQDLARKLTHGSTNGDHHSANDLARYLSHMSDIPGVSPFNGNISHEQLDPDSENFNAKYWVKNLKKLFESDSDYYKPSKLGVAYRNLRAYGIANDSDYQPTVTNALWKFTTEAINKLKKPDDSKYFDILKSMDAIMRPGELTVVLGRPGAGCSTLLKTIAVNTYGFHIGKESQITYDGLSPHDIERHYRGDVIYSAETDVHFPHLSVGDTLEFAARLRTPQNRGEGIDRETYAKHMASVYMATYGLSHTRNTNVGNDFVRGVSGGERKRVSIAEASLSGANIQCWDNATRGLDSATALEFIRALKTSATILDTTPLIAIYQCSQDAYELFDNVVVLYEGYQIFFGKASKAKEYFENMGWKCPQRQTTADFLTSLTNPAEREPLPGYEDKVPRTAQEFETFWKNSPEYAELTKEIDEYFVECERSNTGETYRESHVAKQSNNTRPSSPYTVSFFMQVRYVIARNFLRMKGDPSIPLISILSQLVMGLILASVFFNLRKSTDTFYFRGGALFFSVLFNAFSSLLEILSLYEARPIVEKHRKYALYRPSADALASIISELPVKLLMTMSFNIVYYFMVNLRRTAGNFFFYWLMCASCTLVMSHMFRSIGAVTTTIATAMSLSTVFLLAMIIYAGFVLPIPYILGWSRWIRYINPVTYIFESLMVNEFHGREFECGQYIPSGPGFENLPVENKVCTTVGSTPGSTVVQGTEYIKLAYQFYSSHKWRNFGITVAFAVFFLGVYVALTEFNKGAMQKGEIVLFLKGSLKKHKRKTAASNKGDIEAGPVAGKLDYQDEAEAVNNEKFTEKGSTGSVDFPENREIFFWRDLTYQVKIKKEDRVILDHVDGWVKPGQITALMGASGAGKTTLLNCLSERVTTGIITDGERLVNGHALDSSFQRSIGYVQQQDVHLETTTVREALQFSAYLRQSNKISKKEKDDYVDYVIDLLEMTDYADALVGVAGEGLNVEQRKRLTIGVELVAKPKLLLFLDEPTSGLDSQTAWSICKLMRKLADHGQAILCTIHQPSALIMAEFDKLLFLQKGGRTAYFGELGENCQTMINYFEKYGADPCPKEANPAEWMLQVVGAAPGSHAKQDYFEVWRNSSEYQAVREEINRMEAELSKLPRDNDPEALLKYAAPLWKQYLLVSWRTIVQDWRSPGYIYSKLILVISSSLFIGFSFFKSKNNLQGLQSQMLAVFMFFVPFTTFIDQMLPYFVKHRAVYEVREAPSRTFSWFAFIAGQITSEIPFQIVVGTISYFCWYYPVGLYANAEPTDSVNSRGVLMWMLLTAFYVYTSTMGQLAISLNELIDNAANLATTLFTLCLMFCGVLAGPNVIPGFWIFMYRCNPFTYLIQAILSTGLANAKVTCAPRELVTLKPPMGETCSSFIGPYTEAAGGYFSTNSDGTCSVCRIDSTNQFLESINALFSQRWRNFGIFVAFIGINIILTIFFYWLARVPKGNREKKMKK
Sequence of pCDRI (ABC) efflux pump in S. cerevisiae YEM-1 (P43071 whole entry): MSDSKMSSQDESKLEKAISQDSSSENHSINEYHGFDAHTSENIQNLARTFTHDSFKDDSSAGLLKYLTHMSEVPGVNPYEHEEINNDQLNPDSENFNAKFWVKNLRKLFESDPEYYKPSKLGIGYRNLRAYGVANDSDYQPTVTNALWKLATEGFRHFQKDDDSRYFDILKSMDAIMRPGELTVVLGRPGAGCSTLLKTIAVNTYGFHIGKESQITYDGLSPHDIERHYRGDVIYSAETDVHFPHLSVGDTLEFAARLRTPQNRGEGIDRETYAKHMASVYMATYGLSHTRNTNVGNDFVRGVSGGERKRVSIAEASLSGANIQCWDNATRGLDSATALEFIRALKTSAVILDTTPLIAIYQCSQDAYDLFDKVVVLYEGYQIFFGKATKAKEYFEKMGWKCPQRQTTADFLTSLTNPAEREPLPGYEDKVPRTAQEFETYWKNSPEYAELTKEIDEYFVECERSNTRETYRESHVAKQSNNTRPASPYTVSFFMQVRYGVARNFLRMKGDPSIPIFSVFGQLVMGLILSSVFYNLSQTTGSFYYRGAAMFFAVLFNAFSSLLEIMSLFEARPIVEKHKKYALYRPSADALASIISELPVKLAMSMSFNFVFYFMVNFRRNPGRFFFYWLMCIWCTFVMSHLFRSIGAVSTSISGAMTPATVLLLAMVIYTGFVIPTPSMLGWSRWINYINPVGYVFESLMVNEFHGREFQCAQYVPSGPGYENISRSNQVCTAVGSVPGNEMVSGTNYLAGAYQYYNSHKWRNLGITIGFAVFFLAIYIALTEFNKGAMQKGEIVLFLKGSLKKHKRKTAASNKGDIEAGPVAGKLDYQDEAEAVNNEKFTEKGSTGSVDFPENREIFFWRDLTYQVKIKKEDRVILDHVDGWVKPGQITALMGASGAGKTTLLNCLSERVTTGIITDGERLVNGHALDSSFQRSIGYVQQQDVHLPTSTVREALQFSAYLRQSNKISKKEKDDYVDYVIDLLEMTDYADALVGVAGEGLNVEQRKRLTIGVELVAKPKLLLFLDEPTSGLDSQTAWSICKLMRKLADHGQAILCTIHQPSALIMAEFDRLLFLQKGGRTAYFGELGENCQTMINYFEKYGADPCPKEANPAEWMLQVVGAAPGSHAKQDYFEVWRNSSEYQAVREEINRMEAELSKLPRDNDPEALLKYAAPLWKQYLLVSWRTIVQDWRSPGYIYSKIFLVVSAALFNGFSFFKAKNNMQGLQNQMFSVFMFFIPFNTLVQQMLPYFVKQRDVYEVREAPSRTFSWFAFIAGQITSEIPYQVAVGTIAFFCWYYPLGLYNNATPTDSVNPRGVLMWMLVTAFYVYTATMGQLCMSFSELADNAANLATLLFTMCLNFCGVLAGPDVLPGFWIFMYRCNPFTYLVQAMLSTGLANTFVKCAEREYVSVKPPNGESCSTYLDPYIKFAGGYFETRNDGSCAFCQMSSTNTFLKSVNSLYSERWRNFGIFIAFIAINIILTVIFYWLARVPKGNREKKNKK
Sequence of pBEN (MF) efflux pump in S. cerevisiae YEM-2 (P28873 whole entry): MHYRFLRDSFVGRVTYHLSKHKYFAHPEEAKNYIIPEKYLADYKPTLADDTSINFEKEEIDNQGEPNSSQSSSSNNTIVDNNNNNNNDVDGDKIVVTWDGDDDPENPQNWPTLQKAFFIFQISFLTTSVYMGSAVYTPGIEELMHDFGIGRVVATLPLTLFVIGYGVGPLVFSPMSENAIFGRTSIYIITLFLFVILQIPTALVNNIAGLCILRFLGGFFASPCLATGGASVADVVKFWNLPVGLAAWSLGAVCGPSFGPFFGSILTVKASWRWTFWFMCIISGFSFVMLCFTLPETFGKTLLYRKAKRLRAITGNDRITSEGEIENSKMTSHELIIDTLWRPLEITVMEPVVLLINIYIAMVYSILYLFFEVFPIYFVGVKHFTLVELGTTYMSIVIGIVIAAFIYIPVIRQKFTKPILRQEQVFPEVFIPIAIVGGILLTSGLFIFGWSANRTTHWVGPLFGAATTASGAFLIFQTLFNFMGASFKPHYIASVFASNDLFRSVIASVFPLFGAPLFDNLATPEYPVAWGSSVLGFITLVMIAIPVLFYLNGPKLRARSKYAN
Sequence of pCgCDR (ABC) efflux pump in S. cerevisiae YEM-39 (Q6FK23 whole entry): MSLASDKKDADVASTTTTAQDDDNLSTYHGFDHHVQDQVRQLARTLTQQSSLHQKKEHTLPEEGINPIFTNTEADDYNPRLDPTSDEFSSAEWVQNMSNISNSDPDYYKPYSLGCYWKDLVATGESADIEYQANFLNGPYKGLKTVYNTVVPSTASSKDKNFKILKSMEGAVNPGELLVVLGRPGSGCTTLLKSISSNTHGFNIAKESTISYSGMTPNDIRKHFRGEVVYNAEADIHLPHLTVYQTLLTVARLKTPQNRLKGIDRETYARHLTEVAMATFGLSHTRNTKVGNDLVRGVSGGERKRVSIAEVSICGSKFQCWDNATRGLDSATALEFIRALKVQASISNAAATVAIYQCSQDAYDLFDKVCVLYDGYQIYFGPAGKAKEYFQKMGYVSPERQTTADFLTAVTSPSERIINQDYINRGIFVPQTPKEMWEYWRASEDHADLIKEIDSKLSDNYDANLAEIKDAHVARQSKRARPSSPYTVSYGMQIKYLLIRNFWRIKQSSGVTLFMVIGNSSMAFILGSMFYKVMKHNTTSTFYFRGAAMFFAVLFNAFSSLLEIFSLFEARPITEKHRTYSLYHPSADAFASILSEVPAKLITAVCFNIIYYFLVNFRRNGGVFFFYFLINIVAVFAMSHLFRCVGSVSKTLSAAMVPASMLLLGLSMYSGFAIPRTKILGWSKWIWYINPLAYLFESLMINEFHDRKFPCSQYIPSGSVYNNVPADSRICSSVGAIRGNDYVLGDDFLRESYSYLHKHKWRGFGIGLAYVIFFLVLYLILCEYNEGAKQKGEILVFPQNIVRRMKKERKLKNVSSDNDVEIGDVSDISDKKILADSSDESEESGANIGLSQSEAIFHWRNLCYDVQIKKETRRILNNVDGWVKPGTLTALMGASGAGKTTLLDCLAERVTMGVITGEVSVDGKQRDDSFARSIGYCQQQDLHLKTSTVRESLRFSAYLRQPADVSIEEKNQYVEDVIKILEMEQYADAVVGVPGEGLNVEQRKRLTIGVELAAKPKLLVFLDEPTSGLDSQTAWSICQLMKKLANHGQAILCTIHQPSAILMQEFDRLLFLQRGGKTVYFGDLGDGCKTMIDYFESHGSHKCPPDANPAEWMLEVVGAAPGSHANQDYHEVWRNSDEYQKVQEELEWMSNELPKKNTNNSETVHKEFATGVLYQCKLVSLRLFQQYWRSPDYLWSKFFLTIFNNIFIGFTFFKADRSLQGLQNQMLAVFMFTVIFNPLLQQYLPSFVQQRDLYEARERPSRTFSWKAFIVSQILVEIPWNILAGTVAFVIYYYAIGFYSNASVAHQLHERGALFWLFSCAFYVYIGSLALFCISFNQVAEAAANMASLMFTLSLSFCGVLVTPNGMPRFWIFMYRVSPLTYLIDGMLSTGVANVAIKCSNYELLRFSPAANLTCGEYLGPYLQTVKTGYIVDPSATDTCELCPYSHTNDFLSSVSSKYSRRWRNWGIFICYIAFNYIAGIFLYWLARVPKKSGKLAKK

| Compound | MIC of compound in the presence of fluconazole (+) [3] | MIC of compound in the absence of fluconazole (−) [3] | MIC of compound in the presence of fluconazole (+) [5] | MIC of compound in the absence of fluconazole (−) [5] | MIC of compound in the presence of fluconazole (+) [6] | MIC of compound in the absence of fluconazole (−) [6] | MIC of compound in the absence of fluconazole (−) ([7]; YEM 51, 24 hrs, 80% inhibition) | MIC of compound in the absence of fluconazole (−) ([8]; YEM 53, 24 hrs, 80% inhibition) | MIC of compound in the presence of fluconazole (+) [10] | MIC of compound in the absence of fluconazole (−) [10] | MIC of compound in the presence of fluconazole (+) [11] | MIC of compound in the absence of fluconazole (−) [11] | MIC of compound in the absence of fluconazole (−) ([12]; YEM 30, 24 hrs, 80% inhibition) | FEPI MIC with itraconazole, 60% Inh ([14]; 60% inhibition) | FEPI MIC with itraconazole, 80% Inh ([14]; 80% inhibition) | FEPI MIC with ketoconazole, 60% Inh ([14]; 60% inhibition) | FEPI MIC with ketoconazole, 80% Inh ([14]; 80% inhibition) | FEPI MIC (alone) ([14]; 80% inhibition) | MIC of compound in the presence of fluconazole (+) [7, 18] | MIC of compound in the presence of fluconazole (+) [8, 19] | also measured |
| --- | --- | --- | --- | --- | --- | --- | --- | --- | --- | --- | --- | --- | --- | --- | --- | --- | --- | --- | --- | --- | --- |
| CC1=C[C@H]2C(=O)O[C@H]3C[C@@H](C/C=C(\C)C[C@@H](C)/C=C/C=C4\CO[C@H]([C@@H]1O)[C@@]42O)O[C@@]1(CC[C@H](C)[C@@H](C)O1)C3 [Compound 3, Milbemycin α1] | ≦0.03 | > 64 µg/mL | 32 µg/mL | > 64 µg/mL | 8 µg/mL | 8 µg/mL | > 64 µg/mL | > 64 µg/mL | 4 µg/mL | > 64 µg/mL | > 64 µg/mL | > 64 µg/mL | > 64 µg/mL | 8 | 16 | ≦0.063 | ≦0.063 | >64 | – | – | IC50 [1]: < 0.113 µM; IC50 [2]: 0.473 µM; IC50 [4]: 15.1 µM; MIC of compound in the presence of fluconazole (+) [7]: 16 µg/mL; MIC of compound in the presence of fluconazole (+) [8]: 0.06 µg/mL; FEPIhalf (concentration needed to reduce activity of efflux pump by 50%) [9]: 32; MIC of compound in the presence of fluconazole (+) [12]: ≦0.03; IC50 [13]: 30.3 µM; FEPI MIC with fluconazole, 60% Inh [14]: 2; FEPI MIC with fluconazole, 80% Inh [14]: >64 |
| CCC(C)C1OC2(CC3CC(CC=C(C)C(OC4CC(OC)C(O)C(C)O4)C(C)C=CC=C4COC5C(O)C(C)=CC(C(=O)O3)C45O)O2)CC(O)C1C (stereo not shown) [Compound 23, Avermectin B2a monoglycoside] | 64 µg/mL | > 64 µg/mL | > 64 µg/mL | > 64 µg/mL | > 64 µg/mL | > 64 µg/mL | > 64 µg/mL | > 64 µg/mL | > 64 µg/mL | > 64 µg/mL | > 64 µg/mL | > 64 µg/mL | > 64 µg/mL | 64 | >64 | ≦0.063 | 8 | >64 | > 64 µg/mL | > 64 µg/mL | MIC of compound in the presence of fluconazole (+) [12, 20]: ≦0.03; FEPI MIC with fluconazole, 60% Inh [14, 21]: >64; FEPI MIC with fluconazole, 80% Inh [14, 22]: >64 |
| C/C1=C\C[C@@H]2C[C@@H](C[C@]3(CC[C@H](C)[C@@H](C)O3)O2)OC(=O)[C@@H]2C=C(COC(=O)Cc3ccccc3)[C@@H](O)[C@H]3OC/C(=C\C=C\[C@H](C)C1)[C@]32O [Compound 25, 4a-O-phenylacetyl milbemycin α1] | ≦0.03 | > 64 µg/mL | > 64 µg/mL | > 64 µg/mL | > 64 µg/mL | > 64 µg/mL | > 64 µg/mL | > 64 µg/mL | 2 µg/mL | > 64 µg/mL | > 64 µg/mL | > 64 µg/mL | > 64 µg/mL | 0.5 | >64 | ≦0.063 | 0.25 | >64 | 4 µg/mL | 0.06 µg/mL | MIC of compound in the presence of fluconazole (+) [12, 20]: ≦0.03; FEPI MIC with fluconazole, 60% Inh [14, 21]: 1; FEPI MIC with fluconazole, 80% Inh [14, 22]: 2 |
| CCC(C)n1ncn(-c2ccc(N3CCN(c4ccc(OCC5COC(Cn6cncn6)(c6ccc(Cl)cc6Cl)O5)cc4)CC3)cc2)c1=O (stereo not shown) [Itraconazole, itraconazole, reference compound] | – | – | – | – | – | – | – | – | – | – | – | – | – | – | – | – | – | – | – | – | MIC ([15]; read-out: Itraconazole MIC): 128 µg/mL (≈ 181 µM); MIC ([16]; read-out: Itraconazole MIC): 0.5 µg/mL; MIC ([17]; read-out: Itraconazole MIC): 0.5 µg/mL (≈ 0.709 µM) |
| CC(=O)N1CCN(c2ccc(OCC3COC(Cn4ccnc4)(c4ccc(Cl)cc4Cl)O3)cc2)CC1 (stereo not shown) [Ketoconazole, ketoconazole, reference compound] | – | – | – | – | – | – | – | – | – | – | – | – | – | – | – | – | – | – | – | – | MIC ([15]; read-out: Ketoconazole MIC): 2 µg/mL (≈ 3.76 µM); MIC ([16]; read-out: Ketoconazole MIC): 2 µg/mL; MIC ([17]; read-out: Ketoconazole MIC): 1 µg/mL (≈ 1.88 µM) |
| LL-F2849ζ (nemedectinζ) [Compound 17] | ≦0.03 | > 64 µg/mL | > 64 µg/mL | > 64 µg/mL | 64 µg/mL | > 64 µg/mL | > 64 µg/mL | > 64 µg/mL | 2 µg/mL | > 64 µg/mL | > 64 µg/mL | > 64 µg/mL | > 64 µg/mL | 16 | >64 | 4 | 4 | >64 | 0.5 µg/mL | > 64 µg/mL | MIC of compound in the presence of fluconazole (+) [12, 20]: ≦0.03; FEPI MIC with fluconazole, 60% Inh [14, 21]: 64; FEPI MIC with fluconazole, 80% Inh [14, 22]: 64 |
